In patent US11357760B2, “Method of treating liver fibrosis” (ChemoCentryx, Inc., priority 2016, dated 2022):

Experiments:
MCD-induced NASH model = assay: Methionine-choline deficient (MCD) induced NASH model; type: in vivo, mice C57Bl/6; conditions: Compound 1 subcutaneously, CVC orally; for serum ALT levels: FIG. 5; for trough drug level: 30 mg/kg
Procedure: (§1) Compound 1 was administered subcutaneously to maintain high systemic levels. […] Formalin-fixed, paraffin-embedded liver sections were stained separately with hematoxylin & eosin (H&E) and for Sirius red Picrosirius red (#365548, Sigma) and evaluated for severity of liver fibrosis. All pathologic evaluations were made by a pathologist on a random and blinded basis. Collagen surface density was quantified using Image J (NIH). Two Sirius red-stained slides per animal were taken at different depth, with 18 images taken randomly per slide for a total of 36 images per animal for collagen quantification. Liver enzymes were assayed by Antech GLP (Morrisville, N.C.). Insulin was measured with Ultrasensitive. Mouse Insulin ELISA kit (Crystal Chem Inc: #90080); Blood glucose and insulin levels were determined after an overnight fast (14-16 h). Insulin sensitivity was determined by the homeostatic model assessment of insulin resistance (HOMA-IR). Lipids were measured in the serum and liver with a Triglyceride Colorimetric Assay kit (Cayman Chemical Company: #10010303), a Free Fatty Acid Quantification kit, (Abcam, ab65341) and Cholesterol Quantification kit (Abcam, ab65359).

CCR5 = CCR5 (Homo sapiens, UniProt P51681); conditions: summary of Table 1
Procedure: A conventional migration assay was used to determine the efficacy of potential receptor antagonists in blocking migration mediated through MIP1b. This assay was routinely performed using the ChemoTX® (Neuroprobe) microchamber system with a 5-mum pore-sized polycarbonate membrane. CCR5 expressing cells (IL-2 Lymphocytes or L1.2CCR5 cells) were harvested by centrifugation of cell suspension at 1000 RPM on a GS-6R Beckman centrifuge. […] An equal volume of cells and compounds were mixed and incubated at room temperature for 15 minutes. Afterwards, 20 μl of the mixture was transferred onto the porous membrane of a migration microchamber, with 29 μl of MIP1b ligand (0.1 nM MIP1b protein) placed at the lower chamber. Following incubation at 37 degrees centigrade (90-minute), the assay was terminated by removing the cell drops from atop the filter. To quantify cells migrated across the membrane, 5 mul_ of 7× CyQUANT® (ThermoFisher) solution was added to each well in the lower chamber, and the fluorescence signal measured on a Spectrafluor Plus fluorescence plate reader (TECAN, Durham, N.C.). The degree of inhibition was determined by comparing migration signals between compound-treated and untreated cells. IC50 calculation was further performed by non-linear squares regression analysis using Graphpad Prism (Graphpad Software, San Diego, Calif.).

[1] = test system: HFD/fructose-induced NASH model; assay: High fat diet (HFD)/fructose-induced NASH model; type: in vivo, mice C57Bl/6; conditions: 30 mg/kg subcutaneously once per day for 8 weeks
From the text: as §1, with “Male wild-type (WT) mice C57Bl/6 were obtained from Jackson Laboratory and fed either with high-fat diet (D12492, 60 Cal % fat, Research Diets, New Brunswick, N.J.) with 30% fructose in the drink water or a lean control diet (D12450B, 10 Cal % fat, Research Diets) at 6-8 week of age and maintained on the respective diet for the duration of the study (16-32 weeks). […] Sirius red-staining” for “Compound 1”, “used” for “administered subcutaneously”, “evaluate the severity of liver fibrosis.” for “maintain high systemic levels.”

Chain of CCR5 (P51681 whole entry, species assumed): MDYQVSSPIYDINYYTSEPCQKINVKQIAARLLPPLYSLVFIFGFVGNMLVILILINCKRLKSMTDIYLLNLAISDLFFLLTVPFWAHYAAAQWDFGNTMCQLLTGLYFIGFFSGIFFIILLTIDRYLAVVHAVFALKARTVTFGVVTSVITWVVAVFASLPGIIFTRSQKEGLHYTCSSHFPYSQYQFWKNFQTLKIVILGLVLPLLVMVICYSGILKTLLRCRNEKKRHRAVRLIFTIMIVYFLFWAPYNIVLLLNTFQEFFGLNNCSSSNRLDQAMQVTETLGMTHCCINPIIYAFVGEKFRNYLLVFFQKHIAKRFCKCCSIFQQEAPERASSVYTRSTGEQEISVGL

Structure (SMILES)	serum ALT levels (MCD-induced NASH model; 30 mg/kg for 8 weeks)	trough drug level (MCD-induced NASH model)	CCR5 inhibition (in words) (CCR5)	change in body weight compared to vehicle ([1]; FIG. 1)	serum ALT levels ([1]; FIG. 2)	serum AST levels ([1]; FIG. 2)	percentage of Sirius red staining (liver fibrosis) compared to vehicle ([1]; FIG. 4)	Sirius red-positive staining (liver fibrosis) (MCD-induced NASH model; 30 mg/kg for 8 weeks, FIG. 6)
CCCCOCCOc1ccc(-c2ccc3c(c2)/C=C(/C(=O)Nc2ccc([S@@+]([O-])Cc4cncn4CCC)cc2)CCCN3CC(C)C)cc1 [CVC, cenicriviroc, reference compound]	does not	over IC50	potent CCR5 inhibitor					
Cc1cnc(C(=O)c2ccnc3[nH]ccc23)c(NS(=O)(=O)c2ccc(Cl)c(C(F)(F)F)c2)c1 [Compound 1]	significantly reduces	over IC50		did not change	reduced	reduced	reduced	reduces
